US7361687B2, “Arylsulphonamide derivatives and methods of preparing” (Laboratoires Fournier SA, priority 2002, dated 2008)

Legend:
[1] = tested on: formalin-induced pain response in mice; experiment: formalin-induced pain response test in mice; assay type: in vivo; details: formalin 0.92% in hind paw, licking time 15 to 30 min after injection
Procedure: The compounds of the present invention were evaluated for their analgesic properties in the formalin-induced pain response test in mice (Shibata, M., Ohkubo, T., Takahashi, H. & R. Inoki. Modified formalin test: characteristic biphasic pain response. Pain, 38, 347-352). To summarize, formalin (0.92% in saline solution) is injected into the hind paw and the paw licking time, which reflects pain intensity, is recorded from 0 to 5 min (1st phase) and from 15 to 30 min (2nd phase) after injection.

| Molecule | melting point [°C] | also measured |
| --- | --- | --- |
| CN(Cc1ccc(C2=NCCN2)cc1)C(=O)/C=C/CN(C)S(=O)(=O)c1ccc(OC(F)(F)F)cc1Cl.O=C(O)C(F)(F)F | 68 |  |
| CN(Cc1ccc(C2=NCCN2)cc1)C(=O)/C=C/CN(C)S(=O)(=O)c1cccc2ccccc12.O=C(O)C(F)(F)F | 77 |  |
| CN(Cc1ccc(C2=NCCN2)cc1)C(=O)CCCCN(C1CC1)S(=O)(=O)c1ccccc1Cl.O=C(O)C(F)(F)F | 55 |  |
| CC(C)N(CCCCC(=O)N(C)Cc1ccc(C2=NCCN2)cc1)S(=O)(=O)c1c(Cl)cccc1Cl.O=C(O)C(F)(F)F | 60 |  |
| Cc1c(Cl)ccc(S(=O)(=O)N(CCCCC(=O)N(C)Cc2ccc(C3=NCCN3)cc2)CCC(N)=O)c1Cl.O=C(O)C(F)(F)F | 85 |  |
| CC(C)N(CCC(=O)N(C)Cc1ccc(C2=NCCN2)cc1)S(=O)(=O)c1cccc(Cl)c1Cl.O=C(O)C(F)(F)F | 92 |  |
| CC(C)N(CCC(=O)N(C)Cc1ccc(C2=NCCN2)cc1)S(=O)(=O)c1c(Cl)cccc1Cl.O=C(O)C(F)(F)F | 75 |  |
| CN(Cc1ccc(C2=NCCN2)cc1)C(=O)COCCN(C1CC1)S(=O)(=O)c1ccccc1Cl.O=C(O)C(F)(F)F | 52 |  |
| CN(Cc1ccc(C2=NCCN2)cc1)C(=O)COCCN(C1CC1)S(=O)(=O)c1cccc(Cl)c1Cl.O=C(O)C(F)(F)F | 65 |  |
| CN(Cc1ccc(C2=NCCN2)cc1)C(=O)COCCN(C1CC1)S(=O)(=O)c1c(Cl)cccc1Cl.O=C(O)C(F)(F)F | 60 |  |
| Cc1c(Cl)ccc(S(=O)(=O)N(CCOCC(=O)N(C)Cc2ccc(C3=NCCN3)cc2)CCc2ccccc2)c1Cl.O=C(O)C(F)(F)F | 85 |  |
| CN(Cc1ccc(C2=NCCN2)cc1)C(=O)CCN(C1CC1)S(=O)(=O)c1cccc(Cl)c1Cl.O=C(O)C(F)(F)F | 80 |  |
| CN(Cc1ccc(C2=NCCN2)cc1)C(=O)CCN(C1CC1)S(=O)(=O)c1c(Cl)cccc1Cl.O=C(O)C(F)(F)F | 65 |  |
| CN(Cc1ccc(C2=NCCN2)cc1)C(=O)CCN(CC(F)(F)F)S(=O)(=O)c1cccc(Cl)c1Cl.O=C(O)C(F)(F)F | 88 |  |
| CN(Cc1ccc(C2=NCCN2)cc1)C(=O)CCN(CC(F)(F)F)S(=O)(=O)c1c(Cl)cccc1Cl.O=C(O)C(F)(F)F | 80 |  |
| CN(Cc1ccc(C2=NCCN2)cc1)C(=O)/C=C/CN(C)S(=O)(=O)c1ccccc1C(F)(F)F.O=C(O)C(F)(F)F | 50 |  |
| Cc1c(Cl)ccc(S(=O)(=O)NC/C=C/C(=O)N(C)Cc2ccc(C3=NCCN3)cc2)c1Cl.O=C(O)C(F)(F)F | 99 |  |
| CN(Cc1ccc(C2=NCCN2)cc1)C(=O)COCCN(C)S(=O)(=O)c1ccccc1C(F)(F)F.O=C(O)C(F)(F)F | 60 |  |
| CN(Cc1ccc(C2=NCCN2)cc1)C(=O)COCCN(C)S(=O)(=O)c1c(Cl)cc(C(F)(F)F)cc1Cl.O=C(O)C(F)(F)F | 60 |  |
| CN(Cc1ccc(C2=NCCN2)cc1)C(=O)COCCN(C)S(=O)(=O)c1ccc(Cl)c(Cl)c1Cl.O=C(O)C(F)(F)F | 70 |  |
| CN(Cc1ccc(C2=NCCN2)cc1)C(=O)COCCN(C)S(=O)(=O)c1cccc2ccccc12.O=C(O)C(F)(F)F | 66 |  |
| CN(Cc1ccc(C2=NCCN2)cc1)C(=O)COCCN(C)S(=O)(=O)c1cccc(C(F)(F)F)c1.O=C(O)C(F)(F)F | 60 |  |
| 5-[[(2,3-dichlorophenyl)sulphonyl]methylamino]-N-[[4-(4,5-dihydro-1H-imidazol-2-yl)phenyl]methyl]-N-methyl-pentanamide, trifluoroacetate [Example 9] |  | % inhibition of the 2nd paw licking phase ([1]; dose 100 mg/kg p.o.): 60% |
| CN(Cc1ccc(C2=NCCN2)cc1)C(=O)CCCCN(C1CC1)S(=O)(=O)c1cccc(Cl)c1Cl.O=C(O)C(F)(F)F [Example 16, 5-[cyclopropyl[(2,3-dichlorophenyl)sulphonyl]amino]-N-[[4-(4,5-dihydro-1H-imidazol-2-yl)phenyl]methyl]-N-methyl-pentanamide, trifluoroacetate] | 70 | % inhibition of the 2nd paw licking phase ([1]; dose 100 mg/kg p.o.): 80% |
| Cc1c(Cl)ccc(S(=O)(=O)N(CCCCC(=O)N(C)Cc2ccc(C3=NCCN3)cc2)CC(N)=O)c1Cl.O=C(O)C(F)(F)F [Example 19, 5-[(2-amino-2-oxoethyl)[(2,4-dichloro-3-methylphenyl)sulphonyl]-amino]-N-[[4-(4,5-dihydro-1H-imidazol-2-yl)phenyl]methyl]-N-methyl-pentanamide, trifluoroacetate] | 90 | % inhibition of the 2nd paw licking phase ([1]; dose 10 mg/kg i.p.): 42% |
| N-[[4-(4,5-dihydro-1H-imidazol-2-yl)phenyl]methyl]-2-[2-[[(4-methoxy-2,6-dimethylphenyl)sulphonyl]methylamino]ethoxy]-N-methyl-acetamide, trifluoroacetate [Example 49] |  | % inhibition of the 2nd paw licking phase ([1]; dose 1 mg/kg i.v.): 40% |
